Laboratory results as given in patent publication US10774074B2, “2-(1-heteroarylpiperazin-4-yl)methyl-1,4-benzodioxane derivatives as alpha2C antagonists” (ORION CORPORATION, priority 2015, dated 2020).
Structures can show the parent of a compound that is named as a salt.

What was measured:
human alpha2A receptors = target: T1, human alpha2A receptors (Homo sapiens, UniProt P08913); assay: Determination of alpha2A antagonistic activity in vitro (FLIPR calcium assay, CHO cells); format: cell-based; settings: for Kb: Kb calculated with the Cheng-Prusoff equation from IC50, adrenaline as agonist, CHO cells, human alpha2A, read-out: Alpha 2A Adrenaline Kb; for IC50: antagonism of adrenaline stimulation, CHO cells stably transfected with human alpha2A receptor and Gα16, intracellular calcium (FLIPR), read-out: Alpha 2A Adrenaline IC50
T1 construct: host or cells: CHO cells, cotransfected with pCEP-Gα16
T1 sequence (P08913 1-465): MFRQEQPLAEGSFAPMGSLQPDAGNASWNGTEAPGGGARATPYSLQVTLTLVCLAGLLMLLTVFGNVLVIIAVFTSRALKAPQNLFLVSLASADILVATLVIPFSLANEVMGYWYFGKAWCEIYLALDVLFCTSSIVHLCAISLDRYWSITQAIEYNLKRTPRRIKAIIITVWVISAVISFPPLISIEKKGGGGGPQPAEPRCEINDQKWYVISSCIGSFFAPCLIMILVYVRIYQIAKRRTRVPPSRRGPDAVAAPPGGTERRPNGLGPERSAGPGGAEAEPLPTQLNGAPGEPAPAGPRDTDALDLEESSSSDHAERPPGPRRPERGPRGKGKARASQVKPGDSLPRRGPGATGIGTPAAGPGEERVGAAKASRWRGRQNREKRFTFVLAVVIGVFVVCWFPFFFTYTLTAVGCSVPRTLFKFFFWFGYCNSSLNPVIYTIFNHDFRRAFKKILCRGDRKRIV
Method: (§1) EXPERIMENT 1: Determination of alpha2A and alpha2C Antagonistic Activity In Vitro
(§2) Chinese hamster ovary (CHO) cells stably transfected with human alpha2A or alpha2C receptors (University of Turku, Finland) were cotransfected with the expression vector pCEP-Gα16 (Molecular Devices, CA, USA) were used in this experiment. The cells were maintained at 37° C. in a 5% CO2/95% air atmosphere. The cells were cultured in HAM F-12 medium supplemented with 10% FCS, 25 mM HEPES, 100 IU/ml penicillin, 100 µg/ml streptomycin, 500 μg/ml geneticin and 240 μg/ml hygromycin B. The cells were subcultured twice weekly with 0.25% trypsin and 1 mM EDTA. The subculture ratio was 1:5-1:20. The growth medium was changed every 2 or 3 days. All cell culture reagents were from Gibco. The day before the experiment the cells were plated into black-walled, clear bottom 384-well plates at a density of 10,000 cells/well.
(§3) The growth medium was removed and the cells were incubated with the test compounds and the FLIPR Calcium 6 Assay reagent (Molecular Devices, CA, USA) for 2 h at 37° C. in dark. The test compounds (concentrations in cells 100 pM-10 μM) were dissolved in Probenecid-Ringer consisting of 150 mM NaCl, 3 mM KCl, 1.2 mM MgCl2, 1 mM CaCl2, 5 mM glucose, 20 mM HEPES and 2.5 mM probenecid (pH 7.4 adjusted with 1.0 M NaOH). The osmolarity was adjusted to 322 milliosmoles with Osmostat® OM-6020 osmometer (DIC Kyoto Daiichi Kagagu Co. Ltd, Japan). […] All experiments were performed at 37° C. For agonism measurements the test compounds dissolved in Probenecid-Ringer were applied by FLIPR Tetra at 15 s time point. In order to determine antagonism, the cells were stimulated either with 100 nM adrenaline or noradrenaline and the test compounds were added to the cells 2 h before the experiment with the FLIPR Calcium 6 Assay reagent. […] Typically, there were four replicates at each concentration and six different dose levels. For example, if the number of plates from which results were obtained was three, 72 (4*6*3) wells were thus measured to construct dose-response relationship. The samples were excited at 485 nm and emission was detected at 525 nm with a 515 nm cut-off filter. The minimum fluorescence value subtracted from the maximum value for each well was used in the calculations. ScreenWorks version 4.0 software was used for analyzing the results. Fitting of the antagonist dose-response results was performed with the free Hill equation and the IC50 values were fitted with IDBS XE software using model 200: y=(A+(B/(1+((x/C)^D)))), where A is the curve maximum, B the curve minimum and C equals the EC50 value. D is slope factor (Hill). Kb was calculated with the Cheng-Prusoff equation Kb=A/((B/C)+1), where A is the IC50 of antagonist, B the concentration of agonist and C the EC50 of the agonist.

human alpha2C receptors = target: T2, human alpha2C receptors (Homo sapiens, UniProt P18825); assay: Determination of alpha2C antagonistic activity in vitro (FLIPR calcium assay, CHO cells); format: cell-based; settings: for Kb: Kb calculated with the Cheng-Prusoff equation from IC50, adrenaline as agonist, CHO cells, human alpha2C, read-out: Alpha 2C Adrenaline Kb; for IC50: antagonism of adrenaline stimulation, CHO cells stably transfected with human alpha2C receptor and Gα16, intracellular calcium (FLIPR), read-out: Alpha 2C Adrenaline IC50
T2 construct: host or cells: CHO cells, cotransfected with pCEP-Gα16
T2 sequence (P18825 1-462): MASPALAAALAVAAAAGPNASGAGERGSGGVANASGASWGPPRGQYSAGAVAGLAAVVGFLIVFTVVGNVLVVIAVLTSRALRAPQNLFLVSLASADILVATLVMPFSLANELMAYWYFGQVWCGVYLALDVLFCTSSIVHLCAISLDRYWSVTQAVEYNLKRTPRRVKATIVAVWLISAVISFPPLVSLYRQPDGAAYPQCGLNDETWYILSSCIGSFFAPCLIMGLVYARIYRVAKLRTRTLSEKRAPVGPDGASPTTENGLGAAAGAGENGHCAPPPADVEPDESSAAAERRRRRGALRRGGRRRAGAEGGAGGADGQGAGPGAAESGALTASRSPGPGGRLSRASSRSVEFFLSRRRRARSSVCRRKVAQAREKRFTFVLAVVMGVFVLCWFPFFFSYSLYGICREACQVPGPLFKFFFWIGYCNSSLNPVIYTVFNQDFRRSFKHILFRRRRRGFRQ
Method: as §1, §2, §3

Row | Kb (human alpha2A receptors) | IC50 (human alpha2A receptors) | Kb (human alpha2C receptors) | IC50 (human alpha2C receptors) | SMILES
1 | < 0.004 nM | < 0.1 nM | < 0.1 nM | < 0.01 nM | Cc1c(N2C(=O)c3ccccc3C2=O)c(N2CCN(C[C@H]3COc4ccccc4O3)CC2)nn1C [Compound of example 2, (S)-2-(3-(4-((2,3-Dihydrobenzo[b][1,4]dioxin-2-yl)methyl)piperazin-1-yl)-1,5-dimethyl-1H-pyrazol-4-yl)isoindoline-1,3-dione]
2 | > 449 nM | > 10000 nM | 401 nM | 40.4 nM | CC(=O)c1nsnc1N1CCN(C[C@H]2COc3ccccc3O2)CC1 [Compound of example 33, (S)-1-(4-(4-((2,3-Dihydrobenzo[b][1,4]dioxin-2-yl)methyl)piperazin-1-yl)-1,2,5-thiadiazol-3-yl)ethanone]
3 | 385 nM | 8570 nM | 0.546 nM | 0.055 nM | O=C1CCCN1c1nsnc1N1CCN(C[C@H]2COc3ccccc3O2)CC1 [Compound of example 24, (S)-1-(4-(4-((2,3-Dihydrobenzo[b][1,4]dioxin-2-yl)methyl)piperazin-1-yl)-1,2,5-thiadiazol-3-yl)pyrrolidin-2-one]
4 | > 449 nM | > 10000 nM | 73.1 nM | 7.36 nM | c1ccc(COc2ncccc2Nc2nsnc2N2CCN(C[C@H]3COc4ccccc4O3)CC2)cc1 [Compound of example 37, (S)—N-(2-(Benzyloxy)pyridin-3-yl)-4-(4-((2,3-dihydrobenzo[b][1,4]-dioxin-2-yl)methyl)piperazin-1-yl)-1,2,5-thiadiazol-3-amine hydrochloride]
5 | > 449 nM | > 10000 nM | 1650 nM | 166 nM | NC(=O)c1nsnc1N1CCN(C[C@H]2COc3ccccc3O2)CC1 [Compound of example 27, (S)-4-(4-((2,3-Dihydrobenzo[b][1,4]dioxin-2-yl)methyl)piperazin-1-yl)-1,2,5-thiadiazole-3-carboxamide]
6 | 350 nM | 7810 nM | 1.14 nM | 0.113 nM | c1ccc(-n2nccc2N2CCN(C[C@H]3COc4ccccc4O3)CC2)nc1 [Compound of example 10, (S)-1-((2,3-Dihydrobenzo[b][1,4]dioxin-2-yl)methyl)-4-(1-(pyridin-2-yl)-1H-pyrazol-5-yl)piperazine]
